For data set [1] the following is noted: cited from earlier work; for circulating metabolite as percent of the parent based on plasma AUC of cannabidiol: in vivo.
Data set [2] deals with animal models of epilepsy. To be noted: in vivo; cited from earlier work.
In data set [3] the test system is ovarian cancer cell lines. Put plainly: Cell viability assay (tetrazolium to formazan), 10 ovarian cancer cell lines. Format: cell-based. To be noted: 72 h. The text has this:
Synergistic relationships for combinations of terpenoids and cannabinoids have been reported Russo, E. B. and J. Marcu, Chapter Three—Cannabis Pharmacology: The Usual Suspects and a Few Promising Leads, in Advances in Pharmacology, D. Kendall and S. P. H. Alexander, Editors. 2017, Academic Press. p. 67-134, the entire disclosure of which is incorporated herein by reference This observed synergy was strongly dependent on the ratio and origin of terpenoids, as shown in triple negative breast cancer models. In addition, many cannabinoids and terpenoids are immune suppressors as reported for alpha-bisabolol, which activates TGF to promote the differentiation of macrophages into the M2 phenotype (tumor promoting) and regulatory T cells. Ovarian cancer cell lines tested included A2780ip2, A2780CP20, HeyA8, HeyA8-MDR, SKOV3 and OVCAR3 and were maintained in RPMI 1640 supplemented with 10-15% fetal bovine serum and 0.1% gentamicin sulfate (available from Gemini Bioproducts, Calabasas, CA, USA). OVCAR5 cells were maintained in Dulbecco's modified Eagle's medium with 10% fetal bovine serum and 0.1% gentamicin sulfate. 1D8 murine ovarian cancer cells were maintained in Dulbecco modified
Eagle medium containing 10% fetal bovine serum (FBS), lx insulin-transferrin-selenium (available from Thermo Fisher Scientific, Waltham, MA), and 0.5% gentamicin. All above cells were cultured at 37° C. using a 5% C02 incubator. All in vitro experiments were performed with 70-80% confluent cultures and a passage number […].
Example 7. Cell viability assays. Cell viability assays were performed by testing ovarian cancer cells' metabolic ability to reduce the tetrazolium salt 3-(4,5-dimethylthiazol-2-yl)-5-(3-carboxymethoxyphenyl)-2-(4-sulfophenyl)-2H-tetrazolium (inner salt) to a formazan. […] Activities for each reagent were determined using Hill plot analyses (Graphpad Prism 8 software) to assess the half maximal effect—ICso. Results. […]

For a further data set, the target named is GPR55 (Homo sapiens, UniProt Q9Y2T6). Particulars: cited from earlier work.
A further data set concerns A2780 and OVCAR5. Put plainly: Reverse Phase Protein Array (RPPA) and Ingenuity Pathway Analysis. In kind it is cell-based. To be noted: 5 μM (CBD content). The text has this: Example 11. Protein Expression Level Effects. […] Results.
The target in another data set is T1, 5 HT1A receptor (Homo sapiens, UniProt P08908).
T1 sequence (P08908 1-422): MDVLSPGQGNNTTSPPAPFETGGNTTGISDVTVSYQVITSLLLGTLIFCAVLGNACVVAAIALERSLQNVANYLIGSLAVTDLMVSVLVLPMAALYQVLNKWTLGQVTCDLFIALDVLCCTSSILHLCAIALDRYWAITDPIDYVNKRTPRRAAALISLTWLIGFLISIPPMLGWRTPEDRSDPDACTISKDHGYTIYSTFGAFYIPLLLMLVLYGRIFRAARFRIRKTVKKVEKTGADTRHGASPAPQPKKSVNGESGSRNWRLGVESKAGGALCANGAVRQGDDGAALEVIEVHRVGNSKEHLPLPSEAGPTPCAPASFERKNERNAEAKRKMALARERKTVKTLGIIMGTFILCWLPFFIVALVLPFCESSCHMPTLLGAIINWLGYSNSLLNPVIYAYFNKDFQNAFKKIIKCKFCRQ
To be noted: cited from earlier work.

A further data set has as its system OVCAR5 Luc. Put plainly: In vivo dose finding and efficacy study, orthotopic xenograft model for ovarian cancer. More on the design: species or system nude mice. As to the method: Example 10. In vivo dose finding and efficacy study. The purpose of this study was to determine the safety and efficacy of single agent CBD and annelix in an orthotopic xenograft model for ovarian cancer. This mouse model resembles the disease of ovarian cancer in humans with development of tumor nodules in the abdominal cavity and development of ascites. Method. Luciferase transfected human ovarian tumor cells, OVCAR5 Luc (1.0 million) were injected into the peritoneal cavity of nude mice, intra peritoneally (i.p.). On day 8 after tumor cell injection IVIS® optical imaging was performed to confirm tumor establishment. […] The study was an approved protocol of the MD Anderson Cancer Center (MDACC) Institutional Animal Care and Use Committee (IACUC). […] Mice were sacrificed on day 32 (post inoculation of cells) and tumors were harvested. Body weights, tumor weight, number of tumor nodules and ascites volumes were recorded. Results: The body weights, tumor weights, tumor nodules and ascites volumes for each of the treatment groups are shown in FIG. 4. […] Control mice received corn oil injections. Body weights were not affected by either the dose of annelix (aq.), nor by the dose of CBD in this study.

Another data set has as its target CB2 (Homo sapiens, UniProt P34972). Particulars: cited from earlier work.
A further data set relates to ALL. To be noted: cited from earlier work.
For the next data set, the system named is normal endothelial cells. To be noted: cited from earlier work.
In data set [4] the test system is leukemia (P388), liver cancer (HepG2), skin melanoma (B16-F10), and myelogenous leukemia (K562). To be noted: range over the four cell lines; cited from earlier work.
In another data set the test system is B16-F10 melanoma. Particulars: cited from earlier work.
For data set [5] the following is noted: treatment regimens, cited from earlier work; for nausea and gastrointestinal (GI) AEs, occurrence: single agents.

The values that follow come from patent US20250161332A1, “NON-PSYCHOACTIVE MULTI-CANNABINOID AND POLYSACCHARIDE AND POLYSACCHAROPEPTIDE-BASED THERAPEUTIC COMPOSITIONS AND METHODS OF THEIR ADMINISTRATIO” (Pebble Global Holdings, priority 2021, published 2025).

Sequence of CB2 (P34972 whole entry, species assumed): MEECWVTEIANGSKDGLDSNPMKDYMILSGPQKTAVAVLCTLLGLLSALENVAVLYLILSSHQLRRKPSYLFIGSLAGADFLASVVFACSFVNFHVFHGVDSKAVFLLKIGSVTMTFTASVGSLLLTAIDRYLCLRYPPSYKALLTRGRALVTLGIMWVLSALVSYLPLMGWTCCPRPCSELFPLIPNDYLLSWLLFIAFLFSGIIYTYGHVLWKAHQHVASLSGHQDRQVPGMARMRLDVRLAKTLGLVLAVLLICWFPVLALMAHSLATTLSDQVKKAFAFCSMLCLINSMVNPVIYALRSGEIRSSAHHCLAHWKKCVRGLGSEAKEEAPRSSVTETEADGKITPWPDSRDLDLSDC
Sequence of GPR55 (Q9Y2T6 whole entry, species assumed): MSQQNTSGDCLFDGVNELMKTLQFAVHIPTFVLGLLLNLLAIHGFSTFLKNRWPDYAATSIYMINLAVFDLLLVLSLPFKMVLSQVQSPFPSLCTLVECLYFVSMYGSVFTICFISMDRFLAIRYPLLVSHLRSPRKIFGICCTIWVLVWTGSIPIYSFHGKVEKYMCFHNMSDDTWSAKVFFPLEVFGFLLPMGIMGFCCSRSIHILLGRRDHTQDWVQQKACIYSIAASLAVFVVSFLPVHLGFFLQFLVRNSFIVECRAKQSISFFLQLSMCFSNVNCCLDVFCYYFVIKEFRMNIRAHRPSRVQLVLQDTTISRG

For `C=C(C)[C@@H]1C[C@H](O)C(C)=C[C@H]1c1c(O)cc(CCCCC)cc1O` [6-OH-CBD, 6-hydroxy-cannabidiol], the “circulating metabolite as percent of the parent based on plasma AUC of cannabidiol” value in [1] was < 10%.

Consider `C=C(C)[C@@H]1CCC(C(=O)O)=C[C@H]1c1c(O)cc(CCCCC)cc1O` [7-COOH-CBD, 7-carboxy-cannabidiol], for which the result in data set [2] was inactive. Also, the “circulating metabolite level relative to parent” value in [1] (higher than the parent cannabidiol) is “approximately 40 fold”.

For `C=C(C)[C@@H]1CCC(CO)=C[C@H]1c1c(O)cc(CCCCC)cc1O` [7-OH-CBD, 7-hydroxy-cannabidiol], the activity entry in data set [2] is “equipotent and active”. The “circulating metabolite as percent of the parent based on plasma AUC of cannabidiol” value in [1] is reported as “approximately 38%”.

As for `CCCCCc1cc(O)c2c(c1)OC(C)(CCC=C(C)C)C=C2` (stereo not drawn) [CBC, cannabichromene], the IC50 in data set [3] was 25.9 to 49.9 µM.

As to `C=C(C)[C@@H]1CCC(C)=C[C@H]1c1c(O)cc(CCCCC)cc1O` [CBD, cannabidiol], the activity entry in data set [2] was “equipotent and active”. In addition, the IC50 in [3] was in the range of 7.8 to 14.7 µM. The enzymes primarily metabolizing result in data set [1] (liver and gut) is “CYP2C19, CYP3A4, and UGT1A7, UGT1A9, and UGT2B7”. Besides, the “mode of action at GPR55” value at GPR55 is reported as “antagonist”. Further, in the data set on A2780 and OVCAR5 (8 and 24 hours), the “most affected pathways versus DMSO” value is “HER-2 signaling in breast cancer, PI3/AKT signaling, molecular mechanisms of cancer, systemic lupus erythematosus in B cell signaling pathway, and autophagy”; the most upstream regulators result is “p53, AKT, E2F1, beta-estradiol and ERBB2”. For the same compound, the “cell cycle checkpoint and DNA damage repair pathway proteins (Weel, CDC25, Rad51, chkl, ATR, ATM and p53)” value in the data set with A2780 and OVCAR5 (compared to DMSO control) was “very few proteins, including ATR and CDC25, were downregulated”. Further, the “mode of action at 5 HT1A receptor” value on 5 HT1A receptor is given as “agonist”. Besides, the “tumor burden compared to control group” value in the data set on OVCAR5 Luc (50 mg/kg i.p.) is listed as “reduction in tumor burden”. In the data set on OVCAR5 Luc (50 mg/kg i.p., statistical significance not reached), the ascites volume result was “controlled”. Also, the body weights result with OVCAR5 Luc (1, 10 and 50 mg/kg based on CBD content, i.p., 3 times per week until day 32) is recorded as “not affected”. For the same compound, in the data set on OVCAR5 Luc (1, 10 and 50 mg/kg, i.p., 3 times per week until day 32), the “tolerability / adverse effects” value is “well tolerated and did not cause any adverse effects”. Besides, the “affinity for CB2 receptor” value on CB2 is “little affinity”.

For `CCCCCc1cc(O)c(C/C=C(\C)CCC=C(C)C)c(O)c1` [CBG, cannabigerol], in [3], the IC50 lay in the range of 17 to 35 µM.

In the case of `CC(C)=CCC[C@](C)(O)[C@@H]1CC=C(C)CC1` [alpha-bisabolol, (2S)-6-Methyl-2-[(1S)-4-methylcyclohex-3-en-1-yl]hept-5-en-2-ol], the IC50 is 73 µM in the data set on ALL and 5 µM with normal endothelial cells.

For `CC1=CC=C(C(C)C)CC1` [alpha-terpinene, 1-Isopropyl-4-methyl-1,3-cyclohexadiene], the IC50 in data set [4] is 60 to 180 µM.

In the case of `C=C1C2CCC(C2)C1(C)C` (stereo not drawn) [camphene, 2,2-Dimethyl-3-methyllidenebicyclo[2.2.1]heptane], the IC50 with B16-F10 melanoma is 529 µM.

As for `N.N.[Cl][Pt][Cl]` [cisplatinum], the “Neuropathy and neurological symptoms, occurrence” value in data set [5] is recorded as 94%.

In the case of `Nc1ccn([C@@H]2O[C@H](CO)[C@@H](O)C2(F)F)c(=O)n1` [gemcitabine], the “nausea and gastrointestinal (GI) AEs, occurrence” value in [5] is listed as 69%.

For the compound `CC[C@@]1(O)C(=O)OCc2c1cc1n(c2=O)Cc2cc3c(CN(C)C)c(O)ccc3nc2-1` [topotecan], in data set [5], the “nausea and gastrointestinal (GI) AEs, occurrence” value is reported as 63%.

A word on the IC50: it is the concentration that gives 50% inhibition.
